Measured values from ChEMBL document CHEMBL4828721, “Substituted dienes prepared from betulinic acid - Synthesis, cytotoxicity, mechanism of action, and pharmacological parameters” (Eur J Med Chem, 2021).

Columns and labels:
[1] = test system: CEM-DNR; assay: Cytotoxicity against daunorubicin resistant human CEM-DNR cells assessed as reduction in cell viability measured after 72 hrs by MTS assay; assay type: functional, cell-based
[2] = Cytotoxicity against human HCT116 p53-null cells assessed as reduction in cell viability measured after 72 hrs by MTS assay; assay type: functional, cell-based
[3] = Cytotoxicity against paclitaxel resistant human K562-Tax cells assessed as reduction in cell viability measured after 72 hrs by MTS assay; assay type: functional, cell-based
[4] = test system: CCRF-CEM; assay: Cytotoxicity against human CCRF-CEM cells assessed as reduction in cell viability measured after 72 hrs by MTS assay; assay type: functional, cell-based
[5] = test system: A549; assay: Cytotoxicity against human A549 cells assessed as reduction in cell viability measured after 72 hrs by MTS assay; assay type: functional, cell-based; conditions: A549, 72 h
[6] = test system: MRC5; assay: Cytotoxicity against human MRC5 cells assessed as reduction in cell viability measured after 72 hrs by MTS assay; assay type: cell-based; conditions: MRC5, 72 h
[7] = test system: K562; assay: Cytotoxicity against human K562 cells assessed as reduction in cell viability measured after 72 hrs by MTS assay; assay type: functional, cell-based; conditions: K562, 72 h
[8] = test system: BJ; assay: Cytotoxicity against human BJ cells assessed as reduction in cell viability measured after 72 hrs by MTS assay; assay type: cell-based
[9] = test system: HCT-116; assay: Cytotoxicity against human HCT-116 cells assessed as reduction in cell viability measured after 72 hrs by MTS assay; assay type: functional, cell-based; conditions: HCT-116, 72 h
[10] = test system: U2OS; assay: Cytotoxicity against human U2OS cells assessed as reduction in cell viability measured after 72 hrs by MTS assay; assay type: functional, cell-based

SMILES	IC50 [1]	IC50 [2]	IC50 [3]	IC50 [4]	IC50 [5]	IC50 [6]	IC50 [7]	IC50 [8]	IC50 [9]	IC50 [10]
C=C(/C=C/c1cccc([N+](=O)[O-])c1)[C@@H]1CC[C@]2(C(=O)O)CC[C@]3(C)[C@H](CC[C@@H]4[C@@]5(C)CC[C@H](O)C(C)(C)[C@@H]5CC[C@]43C)[C@@H]12	25.3 µM	35.5 µM	24.3 µM	12.4 µM	48.8 µM	45.1 µM	> 50 µM	> 50 µM	37.5 µM	29.3 µM
C=C(/C=C/c1ccc(C(=O)O)cc1)[C@@H]1CC[C@]2(C(=O)O)CC[C@]3(C)[C@H](CC[C@@H]4[C@@]5(C)CC[C@H](O)C(C)(C)[C@@H]5CC[C@]43C)[C@@H]12	32 µM	42.5 µM	39.2 µM	17.5 µM	> 50 µM	> 50 µM	> 50 µM	> 50 µM	39 µM	49 µM
C=C(/C=C/c1ccccc1C#N)[C@@H]1CC[C@]2(C(=O)O)CC[C@]3(C)[C@H](CC[C@@H]4[C@@]5(C)CC[C@H](O)C(C)(C)[C@@H]5CC[C@]43C)[C@@H]12	26.8 µM	47 µM	24.8 µM	23.2 µM	> 50 µM	> 50 µM	> 50 µM	> 50 µM	36.6 µM	40.4 µM
C=C(/C=C/c1cccc(C#N)c1)[C@@H]1CC[C@]2(C(=O)O)CC[C@]3(C)[C@H](CC[C@@H]4[C@@]5(C)CC[C@H](O)C(C)(C)[C@@H]5CC[C@]43C)[C@@H]12	21.6 µM	29.4 µM	22.7 µM	12.1 µM	> 50 µM	> 50 µM	> 50 µM	> 50 µM	35.1 µM	> 50 µM
C=C(/C=C/c1ccc(Br)cc1F)[C@@H]1CC[C@]2(C(=O)O)CC[C@]3(C)[C@H](CC[C@@H]4[C@@]5(C)CC[C@H](O)C(C)(C)[C@@H]5CC[C@]43C)[C@@H]12	> 50 µM	33.6 µM	> 50 µM	22.4 µM	32.5 µM	33.7 µM	26 µM	43 µM	33.5 µM	29.7 µM
C=C(/C=C/c1ccc(Cl)cc1)[C@@H]1CC[C@]2(C(=O)O)CC[C@]3(C)[C@H](CC[C@@H]4[C@@]5(C)CC[C@H](O)C(C)(C)[C@@H]5CC[C@]43C)[C@@H]12	33.1 µM	38.5 µM	29.2 µM	5.4 µM	45.4 µM	> 50 µM	46.3 µM	> 50 µM	39.5 µM	25.8 µM
C=C(/C=C/c1ccc(F)cc1)[C@@H]1CC[C@]2(C(=O)O)CC[C@]3(C)[C@H](CC[C@@H]4[C@@]5(C)CC[C@H](O)C(C)(C)[C@@H]5CC[C@]43C)[C@@H]12	31.4 µM	41 µM	29.8 µM	4.9 µM	40.6 µM	38.3 µM	36.2 µM	44.6 µM	35.4 µM	23.9 µM
C=C(/C=C/c1c(F)c(F)c(F)c(F)c1F)[C@@H]1CC[C@]2(C(=O)O)CC[C@]3(C)[C@H](CC[C@@H]4[C@@]5(C)CC[C@H](O)C(C)(C)[C@@H]5CC[C@]43C)[C@@H]12	> 50 µM	36.3 µM	> 50 µM	22.1 µM	32.2 µM	43.2 µM	29.8 µM	> 50 µM	32.2 µM	30.2 µM
C=C(/C=C/c1ccc(Br)cc1)[C@@H]1CC[C@]2(C(=O)O)CC[C@]3(C)[C@H](CC[C@@H]4[C@@]5(C)CC[C@H](O)C(C)(C)[C@@H]5CC[C@]43C)[C@@H]12	28.9 µM	31.8 µM	29.3 µM	6.5 µM	> 50 µM	35.2 µM	> 50 µM	> 50 µM	33.2 µM	27 µM
